Measured values reported in paper PMC9817970 (Cancers, 2022).

Columns and labels:
Assay in all cases: Kinase panel profiling
Assay type in all cases: biochemical
Details in all cases: 10 μM ATP
ALK5/TGFBR1 = molecular target: T1, ALK5/TGFBR1 (Homo sapiens, UniProt P36897)
T1 construct: purchased Reaction Biology Corp
Protocol: (§1) Kinase panel profiling was conducted by Reaction Biology Corp. (San Diego, CA, USA). A single dose (1.0 μM) of 6r was tested against 371 recombinant human kinases in the presence of 10 μM ATP.

BLK = molecular target: T2, BLK (Homo sapiens, UniProt P51451)
T2 construct: purchased Reaction Biology Corp
Protocol: as §1

BRK = molecular target: T3, BRK (Homo sapiens, UniProt Q13882)
T3 construct: purchased Reaction Biology Corp
T3 sequence (Q13882 whole entry): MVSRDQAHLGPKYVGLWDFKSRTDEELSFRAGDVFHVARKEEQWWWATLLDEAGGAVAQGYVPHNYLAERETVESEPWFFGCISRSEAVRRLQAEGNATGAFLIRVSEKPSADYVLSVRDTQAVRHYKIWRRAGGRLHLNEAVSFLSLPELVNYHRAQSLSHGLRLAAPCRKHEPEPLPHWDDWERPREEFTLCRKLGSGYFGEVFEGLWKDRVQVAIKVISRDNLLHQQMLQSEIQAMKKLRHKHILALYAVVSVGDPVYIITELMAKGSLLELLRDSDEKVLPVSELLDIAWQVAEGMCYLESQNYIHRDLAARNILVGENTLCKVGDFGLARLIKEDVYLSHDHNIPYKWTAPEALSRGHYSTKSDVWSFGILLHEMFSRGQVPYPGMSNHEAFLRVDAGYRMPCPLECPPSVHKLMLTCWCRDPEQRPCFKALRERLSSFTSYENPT
Protocol: as §1

CAMK2a = molecular target: T4, CAMK2a (Homo sapiens, UniProt Q9UQM7)
T4 construct: purchased Reaction Biology Corp
Protocol: as §1

CDK1/cyclin B = molecular target: T5, CDK1/cyclin B (Homo sapiens, UniProt P06493)
T5 construct: purchased Reaction Biology Corp
Protocol: as §1

CDK6/cyclin D3 = molecular target: T6, CDK6/cyclin D3 (Homo sapiens, UniProt Q00534)
T6 construct: purchased Reaction Biology Corp
Protocol: as §1

DYRK1/DYRK1A = molecular target: T7, DYRK1/DYRK1A (Homo sapiens, UniProt Q13627)
T7 construct: purchased Reaction Biology Corp
Protocol: as §1

EPHA5 = molecular target: T8, EPHA5 (Homo sapiens, UniProt P54756)
T8 construct: purchased Reaction Biology Corp
Protocol: as §1

EPHA7 = molecular target: T9, EPHA7 (Homo sapiens, UniProt Q15375)
T9 construct: purchased Reaction Biology Corp
Protocol: as §1

ERK7/MAPK15 = molecular target: T10, ERK7/MAPK15 (Homo sapiens, UniProt Q8TD08)
T10 construct: purchased Reaction Biology Corp
Protocol: as §1

ERN1/IRE1 = molecular target: T11, ERN1/IRE1 (Homo sapiens, UniProt O75460)
T11 construct: purchased Reaction Biology Corp
Protocol: as §1

FGFR4 = molecular target: T12, FGFR4 (Homo sapiens, UniProt P22455)
T12 construct: purchased Reaction Biology Corp
Protocol: as §1

FYN = molecular target: T13, FYN (Homo sapiens, UniProt P06241)
T13 construct: purchased Reaction Biology Corp
Protocol: as §1

GSK3b = molecular target: T14, GSK3b (Homo sapiens, UniProt P49841)
T14 construct: purchased Reaction Biology Corp
Protocol: as §1

HCK = molecular target: T15, HCK (Homo sapiens, UniProt P08631)
T15 construct: purchased Reaction Biology Corp
Protocol: as §1

IKKe/IKBKE = molecular target: T16, IKKe/IKBKE (Homo sapiens, UniProt Q14164)
T16 construct: purchased Reaction Biology Corp
Protocol: as §1

JAK2 = molecular target: T17, JAK2 (Homo sapiens, UniProt O60674)
T17 construct: purchased Reaction Biology Corp
Protocol: as §1

LOK/STK10 = molecular target: T18, LOK/STK10 (Homo sapiens, UniProt O94804)
T18 construct: purchased Reaction Biology Corp
Protocol: as §1

MAK = molecular target: T19, MAK (Homo sapiens, UniProt P20794)
T19 construct: purchased Reaction Biology Corp
Protocol: as §1

MARK2/PAR-1Ba = molecular target: T20, MARK2/PAR-1Ba (Homo sapiens, UniProt Q7KZI7)
T20 construct: purchased Reaction Biology Corp
Protocol: as §1

MARK3 = molecular target: T21, MARK3 (Homo sapiens, UniProt P27448)
T21 construct: purchased Reaction Biology Corp
Protocol: as §1

MASTL = molecular target: T22, MASTL (Homo sapiens, UniProt Q96GX5)
T22 construct: purchased Reaction Biology Corp
T22 sequence (Q96GX5 whole entry): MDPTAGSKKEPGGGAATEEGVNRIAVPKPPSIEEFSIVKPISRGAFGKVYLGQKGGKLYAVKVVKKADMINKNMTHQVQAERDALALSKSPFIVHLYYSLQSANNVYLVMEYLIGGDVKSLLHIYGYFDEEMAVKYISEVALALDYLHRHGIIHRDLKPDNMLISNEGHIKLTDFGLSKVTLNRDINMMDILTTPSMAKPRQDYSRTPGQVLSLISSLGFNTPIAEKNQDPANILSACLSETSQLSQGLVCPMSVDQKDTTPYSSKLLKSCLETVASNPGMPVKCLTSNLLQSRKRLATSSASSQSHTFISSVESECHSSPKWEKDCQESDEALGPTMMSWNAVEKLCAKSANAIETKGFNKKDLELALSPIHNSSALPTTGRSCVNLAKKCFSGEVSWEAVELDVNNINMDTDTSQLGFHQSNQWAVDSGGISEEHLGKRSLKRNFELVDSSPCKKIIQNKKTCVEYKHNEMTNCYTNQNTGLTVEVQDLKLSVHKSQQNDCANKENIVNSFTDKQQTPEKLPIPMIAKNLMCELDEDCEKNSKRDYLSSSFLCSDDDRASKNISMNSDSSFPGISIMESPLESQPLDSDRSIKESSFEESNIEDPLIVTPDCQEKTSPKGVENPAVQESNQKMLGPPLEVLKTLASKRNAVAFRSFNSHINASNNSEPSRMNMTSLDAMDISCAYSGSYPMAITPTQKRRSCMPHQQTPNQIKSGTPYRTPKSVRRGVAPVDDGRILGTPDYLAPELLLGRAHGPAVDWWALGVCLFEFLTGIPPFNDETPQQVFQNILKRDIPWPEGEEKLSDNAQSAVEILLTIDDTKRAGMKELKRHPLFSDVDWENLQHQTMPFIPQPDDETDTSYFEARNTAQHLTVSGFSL
Protocol: as §1

MLCK2/MYLK2 = molecular target: T23, MLCK2/MYLK2 (Homo sapiens, UniProt Q9H1R3)
T23 construct: purchased Reaction Biology Corp
Protocol: as §1

NEK3 = molecular target: T24, NEK3 (Homo sapiens, UniProt P51956)
T24 construct: purchased Reaction Biology Corp
Protocol: as §1

OSR1/OXSR1 = molecular target: T25, OSR1/OXSR1 (Homo sapiens, UniProt O95747)
T25 construct: purchased Reaction Biology Corp
Protocol: as §1

PAK4 = molecular target: T26, PAK4 (Homo sapiens, UniProt O96013)
T26 construct: purchased Reaction Biology Corp
Protocol: as §1

PAK5 = molecular target: T27, PAK5 (Homo sapiens, UniProt Q9P286)
T27 construct: purchased Reaction Biology Corp
Protocol: as §1

PBK/TOPK = molecular target: T28, PBK/TOPK (Homo sapiens, UniProt Q96KB5)
T28 construct: purchased Reaction Biology Corp
Protocol: as §1

PDGFRb = molecular target: T29, PDGFRb (Homo sapiens, UniProt P09619)
T29 construct: purchased Reaction Biology Corp
Protocol: as §1

PKA = molecular target: T30, PKA (Homo sapiens, UniProt P17612)
T30 construct: purchased Reaction Biology Corp
Protocol: as §1

PKAcg = molecular target: T31, PKAcg (Homo sapiens, UniProt P22612)
T31 construct: purchased Reaction Biology Corp
Protocol: as §1

PKG1a = molecular target: T32, PKG1a (Homo sapiens, UniProt Q13976)
T32 construct: purchased Reaction Biology Corp
T32 sequence (Q13976 whole entry): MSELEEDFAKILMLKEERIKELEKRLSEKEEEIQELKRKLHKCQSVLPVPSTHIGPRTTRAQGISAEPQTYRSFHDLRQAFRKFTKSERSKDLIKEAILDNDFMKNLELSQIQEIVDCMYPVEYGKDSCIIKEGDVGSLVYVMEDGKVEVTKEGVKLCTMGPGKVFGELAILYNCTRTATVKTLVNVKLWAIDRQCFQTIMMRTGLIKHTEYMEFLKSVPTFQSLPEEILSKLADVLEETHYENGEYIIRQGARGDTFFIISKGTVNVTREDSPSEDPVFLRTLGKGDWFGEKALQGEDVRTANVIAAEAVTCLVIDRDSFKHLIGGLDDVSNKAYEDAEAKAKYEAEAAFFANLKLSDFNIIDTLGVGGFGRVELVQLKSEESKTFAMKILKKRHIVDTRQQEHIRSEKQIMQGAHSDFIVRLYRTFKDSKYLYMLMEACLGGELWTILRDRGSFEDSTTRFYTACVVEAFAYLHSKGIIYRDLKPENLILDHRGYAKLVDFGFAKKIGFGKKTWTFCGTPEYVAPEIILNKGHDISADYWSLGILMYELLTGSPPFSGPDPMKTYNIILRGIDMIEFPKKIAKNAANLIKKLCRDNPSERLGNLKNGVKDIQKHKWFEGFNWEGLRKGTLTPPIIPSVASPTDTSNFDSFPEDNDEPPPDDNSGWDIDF
Protocol: as §1

RIPK4 = molecular target: T33, RIPK4 (Homo sapiens, UniProt P57078)
T33 construct: purchased Reaction Biology Corp
T33 sequence (P57078 whole entry): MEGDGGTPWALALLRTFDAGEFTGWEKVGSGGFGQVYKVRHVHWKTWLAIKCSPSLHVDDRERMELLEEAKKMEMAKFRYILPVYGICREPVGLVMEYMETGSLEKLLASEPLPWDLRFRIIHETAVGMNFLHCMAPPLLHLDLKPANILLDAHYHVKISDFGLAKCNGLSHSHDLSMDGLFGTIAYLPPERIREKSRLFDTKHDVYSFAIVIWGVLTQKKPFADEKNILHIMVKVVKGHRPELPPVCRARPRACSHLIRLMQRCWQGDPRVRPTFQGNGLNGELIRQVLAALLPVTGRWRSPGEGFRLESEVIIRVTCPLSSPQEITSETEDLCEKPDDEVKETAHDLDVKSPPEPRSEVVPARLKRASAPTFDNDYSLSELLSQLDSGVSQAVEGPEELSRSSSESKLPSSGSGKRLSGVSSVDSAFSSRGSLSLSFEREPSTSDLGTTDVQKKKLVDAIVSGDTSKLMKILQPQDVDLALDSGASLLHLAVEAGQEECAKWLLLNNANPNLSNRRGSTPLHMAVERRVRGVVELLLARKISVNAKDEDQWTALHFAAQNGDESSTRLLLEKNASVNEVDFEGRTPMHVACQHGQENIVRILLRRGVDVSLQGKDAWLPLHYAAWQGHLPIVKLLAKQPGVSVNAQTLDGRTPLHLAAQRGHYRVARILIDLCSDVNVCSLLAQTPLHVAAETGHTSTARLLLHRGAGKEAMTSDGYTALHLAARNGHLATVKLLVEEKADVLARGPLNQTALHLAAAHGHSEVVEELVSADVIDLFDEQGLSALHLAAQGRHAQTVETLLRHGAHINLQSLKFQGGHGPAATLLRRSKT
Protocol: as §1

ROS/ROS1 = molecular target: T34, ROS/ROS1 (Homo sapiens, UniProt P08922)
T34 construct: purchased Reaction Biology Corp
Protocol: as §1

SGK1 = molecular target: T35, SGK1 (Homo sapiens, UniProt O00141)
T35 construct: purchased Reaction Biology Corp
Protocol: as §1

SRPK1 = molecular target: T36, SRPK1 (Homo sapiens, UniProt Q96SB4)
T36 construct: purchased Reaction Biology Corp
Protocol: as §1

SRPK2 = molecular target: T37, SRPK2 (Homo sapiens, UniProt P78362)
T37 construct: purchased Reaction Biology Corp
T37 sequence (P78362 whole entry): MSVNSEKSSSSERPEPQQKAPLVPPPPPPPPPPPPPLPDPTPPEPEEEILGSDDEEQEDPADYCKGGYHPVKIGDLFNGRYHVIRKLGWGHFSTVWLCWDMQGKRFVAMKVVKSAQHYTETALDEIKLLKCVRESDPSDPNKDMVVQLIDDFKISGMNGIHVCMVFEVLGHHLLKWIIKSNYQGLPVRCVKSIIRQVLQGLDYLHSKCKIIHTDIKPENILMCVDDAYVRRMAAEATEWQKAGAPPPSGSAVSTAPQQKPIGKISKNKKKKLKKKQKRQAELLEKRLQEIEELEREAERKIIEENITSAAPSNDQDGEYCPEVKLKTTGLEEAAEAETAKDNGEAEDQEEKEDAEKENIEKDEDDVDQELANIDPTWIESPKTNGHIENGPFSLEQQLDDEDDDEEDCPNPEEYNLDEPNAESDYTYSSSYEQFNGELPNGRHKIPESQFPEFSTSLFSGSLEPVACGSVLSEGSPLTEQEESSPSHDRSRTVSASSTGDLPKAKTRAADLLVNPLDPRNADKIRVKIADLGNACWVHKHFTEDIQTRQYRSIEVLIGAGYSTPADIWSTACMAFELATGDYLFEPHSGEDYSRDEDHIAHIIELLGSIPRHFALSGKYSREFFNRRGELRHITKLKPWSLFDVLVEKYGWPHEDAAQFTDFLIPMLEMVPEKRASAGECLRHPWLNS
Protocol: as §1

STK32B/YANK2 = molecular target: T38, STK32B/YANK2 (Homo sapiens, UniProt Q9NY57)
T38 construct: purchased Reaction Biology Corp
Protocol: as §1

TESK1 = molecular target: T39, TESK1 (Homo sapiens, UniProt Q15569)
T39 construct: purchased Reaction Biology Corp
Protocol: as §1

TRKB = molecular target: T40, TRKB (Homo sapiens, UniProt Q16620)
T40 construct: purchased Reaction Biology Corp
T40 sequence (Q16620 32-822): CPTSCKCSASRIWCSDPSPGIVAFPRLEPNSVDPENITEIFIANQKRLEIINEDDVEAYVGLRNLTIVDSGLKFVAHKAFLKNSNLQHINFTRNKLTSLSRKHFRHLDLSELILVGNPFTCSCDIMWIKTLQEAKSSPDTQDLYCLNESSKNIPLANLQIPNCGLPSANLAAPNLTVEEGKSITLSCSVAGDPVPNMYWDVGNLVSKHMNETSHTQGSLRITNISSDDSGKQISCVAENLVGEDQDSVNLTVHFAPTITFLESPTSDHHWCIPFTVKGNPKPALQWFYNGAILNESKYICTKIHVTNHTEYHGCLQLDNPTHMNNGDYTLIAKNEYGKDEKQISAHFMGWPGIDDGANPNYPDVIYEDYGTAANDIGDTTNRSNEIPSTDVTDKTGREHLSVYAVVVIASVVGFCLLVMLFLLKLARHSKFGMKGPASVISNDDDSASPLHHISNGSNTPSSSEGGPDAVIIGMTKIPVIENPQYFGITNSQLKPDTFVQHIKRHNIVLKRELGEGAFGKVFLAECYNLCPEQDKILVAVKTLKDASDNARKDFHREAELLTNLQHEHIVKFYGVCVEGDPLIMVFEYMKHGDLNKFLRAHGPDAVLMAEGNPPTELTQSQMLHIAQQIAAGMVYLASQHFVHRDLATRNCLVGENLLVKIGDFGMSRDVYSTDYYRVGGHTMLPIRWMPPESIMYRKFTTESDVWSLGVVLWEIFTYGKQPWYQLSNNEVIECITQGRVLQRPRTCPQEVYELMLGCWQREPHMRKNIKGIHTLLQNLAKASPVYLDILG
Protocol: as §1

ZIPK/DAPK3 = molecular target: T41, ZIPK/DAPK3 (Homo sapiens, UniProt O43293)
T41 construct: purchased Reaction Biology Corp
Protocol: as §1

c-MET = molecular target: T42, c-MET (Homo sapiens, UniProt P08581)
T42 construct: purchased Reaction Biology Corp
Protocol: as §1

T1 sequence (P36897 34-503): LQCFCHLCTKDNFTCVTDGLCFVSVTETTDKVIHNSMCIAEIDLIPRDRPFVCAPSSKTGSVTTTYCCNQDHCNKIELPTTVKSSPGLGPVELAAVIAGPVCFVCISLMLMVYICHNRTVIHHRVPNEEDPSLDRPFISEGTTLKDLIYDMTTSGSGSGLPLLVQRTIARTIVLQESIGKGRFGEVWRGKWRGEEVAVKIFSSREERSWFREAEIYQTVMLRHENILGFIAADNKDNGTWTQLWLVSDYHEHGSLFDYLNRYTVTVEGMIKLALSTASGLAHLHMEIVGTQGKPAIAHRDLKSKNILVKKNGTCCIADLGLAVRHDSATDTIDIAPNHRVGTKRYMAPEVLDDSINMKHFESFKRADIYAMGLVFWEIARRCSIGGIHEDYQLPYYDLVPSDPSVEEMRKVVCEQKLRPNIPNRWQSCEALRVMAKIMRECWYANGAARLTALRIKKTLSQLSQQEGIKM

Cc1ccc(NC(=O)c2ccc(CN3CCN(C)CC3)c(C(F)(F)F)c2)cc1-c1cnc2sc(N)nc2c1 [6r]
inhibition at 1 µM (ALK5/TGFBR1): 0% | inhibition at 1 µM (BLK): 84.8% | inhibition at 1 µM (BRK): 37.5% | inhibition at 1 µM (CAMK2a): 16% | inhibition at 1 µM (CDK1/cyclin B): 0% | inhibition at 1 µM (CDK6/cyclin D3): 4.2% | inhibition at 1 µM (DYRK1/DYRK1A): 17.4% | inhibition at 1 µM (EPHA5): 78.5% | inhibition at 1 µM (EPHA7): 40.7% | inhibition at 1 µM (ERK7/MAPK15): 4.2% | inhibition at 1 µM (ERN1/IRE1): 8% | inhibition at 1 µM (FGFR4): 30.1% | inhibition at 1 µM (FYN): 89% | inhibition at 1 µM (GSK3b): 12.9% | inhibition at 1 µM (HCK): 83.1% | inhibition at 1 µM (IKKe/IKBKE): 2% | inhibition at 1 µM (JAK2): 2% | inhibition at 1 µM (LOK/STK10): 14% | inhibition at 1 µM (MAK): 15% | inhibition at 1 µM (MARK2/PAR-1Ba): 0% | inhibition at 1 µM (MARK3): 0% | inhibition at 1 µM (MASTL): 1.3% | inhibition at 1 µM (MLCK2/MYLK2): 4.8% | inhibition at 1 µM (NEK3): 0% | inhibition at 1 µM (OSR1/OXSR1): 5.5% | inhibition at 1 µM (PAK4): 8.6% | inhibition at 1 µM (PAK5): 5% | inhibition at 1 µM (PBK/TOPK): 4.3% | inhibition at 1 µM (PDGFRb): 94.2% | inhibition at 1 µM (PKA): 5.3% | inhibition at 1 µM (PKAcg): 29.2% | inhibition at 1 µM (PKG1a): 10.1% | inhibition at 1 µM (RIPK4): 4.8% | inhibition at 1 µM (ROS/ROS1): 6.6% | inhibition at 1 µM (SGK1): 11.6% | inhibition at 1 µM (SRPK1): 46.3% | inhibition at 1 µM (SRPK2): 9% | inhibition at 1 µM (STK32B/YANK2): 0% | inhibition at 1 µM (TESK1): 5.3% | inhibition at 1 µM (TRKB): 10.6% | inhibition at 1 µM (ZIPK/DAPK3): 6.7% | inhibition at 1 µM (c-MET): 2.7%
